Experimental findings from ChEMBL document CHEMBL1138323 (J Med Chem, 2007) are described below.

A short description of data set [1]: Neurotoxicity in Sprague-Dawley rat by rotarod test. Format: toxicity, organism-based. Particulars: in vivo.
Data set [2] is filed under the species Rattus norvegicus. Description: Protective index, ratio of TD50 for Sprague-Dawley rat by rotarod test to ED50 for Sprague-Dawley rat by MES test. Format: functional.
For data set [3], the species on record is Rattus norvegicus. Nature of the data set: Protective index, ratio of TD50 for Sprague-Dawley rat by rotarod test to ED50 for Sprague-Dawley rat by scMET test. The format is functional.
A short description of data set [4]: Neurotoxicity in Albino CF1 mouse by rotarod test. Format: toxicity, organism-based. Particulars: in vivo.
Data set [5] is filed under the species Mus musculus. Nature of the data set: Protective index, ratio of TD50 for Albino CF1 mouse to ED50 for Albino CF1 mouse by 6-Hz psychomotor seizure test at 32 mA current. Format: functional.
Data set [6] is filed under the species Mus musculus. Description: Protective index, ratio of TD50 for Albino CF1 mouse to ED50 for Albino CF1 mouse by 6-Hz psychomotor seizure test at 44 mA current. Format: functional.
Data set [7] has as its system Mus musculus. Nature of the data set: Teratogenic effect in Swiss Webster Vancouver mouse assessed as embryo lethality at 205 mg/kg, ip. Format: toxicity, organism-based. Also noted: dose 205 mg/kg, route intraperitoneal. The following applies: in vivo.
Data set [8] has as its system Mus musculus. Nature of the data set: Teratogenic effect in Swiss Webster Vancouver mouse assessed as exencephaly at 205 mg/kg, ip. Format: toxicity, organism-based. Details: dose 205 mg/kg, route intraperitoneal. The following applies: in vivo.
In data set [9] the test system is Mus musculus. Description: Induction of lethality in Swiss Webster Vancouver mouse dams at 2.7 mmol/kg, ip after 24 hrs. The format is organism-based. Particulars: in vivo.
In data set [10] the test system is Mus musculus. Nature of the data set: Induction of lethality in Swiss Webster Vancouver mouse dams at 1.8 mmol/kg, ip after 24 hrs. The following applies: in vivo. The format is organism-based.
The nature of data set [11]: Solubility in water. The format is physicochemical.
The species entered for data set [12] is Rattus norvegicus. Description: Anticonvulsant activity in Sprague-Dawley rat by maximal electroshock seizure test. Format: functional.
In data set [13] the test system is Rattus norvegicus. Nature of the data set: Anticonvulsant activity in Sprague-Dawley rat by subcutaneous pentylenetetrazole test. Format: functional. The following applies: sc.
Data set [14] is filed under the species Mus musculus. Description: Anticonvulsant activity in Albino CF1 mouse by 6-Hz psychomotor seizure test at 32 mA current. Format: functional.
Data set [15] is filed under the species Mus musculus. Description: Anticonvulsant activity in Albino CF1 mouse by 6-Hz psychomotor seizure test at 44 mA current. The format is functional.
Data set [16] relates to Mus musculus. Description: Teratogenic effect in Swiss Webster Vancouver mouse assessed as embryo lethality at 503 mg/kg, ip. Format: toxicity, organism-based. Also noted: dose 503 mg/kg, route intraperitoneal. Particulars: in vivo.
Data set [17] in a line: Teratogenic effect in Swiss Webster Vancouver mouse assessed as embryo lethality at 336 mg/kg, ip. Format: toxicity, organism-based. Details: dose 336 mg/kg, route intraperitoneal. The following applies: in vivo, read-out: Activity.
Data set [18] has as its system Mus musculus. Description: Teratogenic effect in Swiss Webster Vancouver mouse assessed as exencephaly at 503 mg/kg, ip. The format is toxicity, organism-based. Details: dose 503 mg/kg, route intraperitoneal. The following applies: in vivo.
In data set [19] the test system is Mus musculus. Description: Teratogenic effect in Swiss Webster Vancouver mouse assessed as exencephaly at 336 mg/kg, ip. Format: toxicity, organism-based. Also noted: dose 336 mg/kg, route intraperitoneal. Particulars: in vivo.
Data set [20] concerns Mus musculus. Description: Teratogenic effect in Swiss Webster Vancouver mouse assessed as embryo lethality at 520 mg/kg, ip. The format is toxicity, organism-based. Also noted: dose 520 mg/kg, route intraperitoneal. Particulars: in vivo.
The test system of data set [21] is Mus musculus. Nature of the data set: Teratogenic effect in Swiss Webster Vancouver mouse assessed as exencephaly at 520 mg/kg, ip. The following applies: in vivo. Also noted: dose 520 mg/kg, route intraperitoneal. The format is toxicity, organism-based.
Data set [22] concerns Mus musculus. Nature of the data set: Teratogenic effect in Swiss Webster Vancouver mouse assessed as embryo lethality at 261 mg/kg, ip. Format: toxicity, organism-based. Also noted: dose 261 mg/kg, route intraperitoneal. Particulars: in vivo.
Data set [23] deals with Mus musculus. Description: Teratogenic effect in Swiss Webster Vancouver mouse assessed as embryo lethality at 167 mg/kg, ip. Details: dose 167 mg/kg, route intraperitoneal. Format: toxicity, organism-based. The following applies: in vivo.
Data set [24] concerns Mus musculus. Description: Teratogenic effect in Swiss Webster Vancouver mouse assessed as exencephaly at 261 mg/kg, ip. Format: toxicity, organism-based. Also noted: dose 261 mg/kg, route intraperitoneal. Particulars: in vivo.
Data set [25] deals with Mus musculus. Nature of the data set: Teratogenic effect in Swiss Webster Vancouver mouse assessed as exencephaly at 167 mg/kg, ip. The following applies: in vivo. The format is toxicity, organism-based. Also noted: dose 167 mg/kg, route intraperitoneal.
The subject of data set [26] is Mus musculus. Nature of the data set: Induction of lethality in Swiss Webster Vancouver mouse dams at 3.6 mmol/kg, ip after 24 hrs. Format: organism-based. Particulars: in vivo.

Converted amounts (≈) assume the structure as drawn.

For the compound `CCC(C)C(CC)C(=O)NC(N)=O` (configuration not stated) [CAPURIDE], the TD50 stood at 97 mg/kg in [1] and 50 mg/kg in data set [4]. The “Ratio TD50/ED50” value was 4 in data set [2], 6.9 in [3], under 4.7 in data set [5] and under 2.1 in data set [6]. Moreover, the Activity in [7] is 39%; in data set [8], 2.7%; in [9], “Toxic”; in data set [10] it was “Toxic”. For the same compound, the concentration in solution in data set [11] (solubility) came to 280 µg/mL (≈ 1500 µM).
`CCC[C@H](C(=O)NC(N)=O)C(C)C`: the ED50 came out at 18 mg/kg in [12], 37 mg/kg in [13], 46 mg/kg in [14] and 75 mg/kg in data set [15]. The TD50 in data set [1] turned out to be 118 mg/kg; in [4], 100 mg/kg. Further, the “Ratio TD50/ED50” value was 6.5 in data set [2], 3.2 in data set [3], under 6.5 in [5] and under 4 in [6]. Moreover, the Activity in data set [7] is given as 6.8%; in data set [16], 40.7%; in data set [8] it was 0.8%; in data set [18] it was 4.3%; in [19] it was 5.7%. In data set [17], the mortality is 10.2%.
In the case of `CCCC(C(=O)NC(N)=O)C(C)C` (racemic), the TD50 in [1] is 95 mg/kg; in [4], 50 mg/kg. Moreover, the “Ratio TD50/ED50” value in data set [2] is 5.9; in data set [3], 2.1; in data set [5], under 2; in data set [6], under 1.4. In [14], this compound registered an ED50 of 42 mg/kg. The solubility in [11] worked out at 130 µg/mL (≈ 698 µM).
Turning to `CCC[C@@H](C(N)=O)C(C)C`, the values for the ED50 in data set [12] and in data set [13] were 47 mg/kg and 22 mg/kg, respectively. In addition, the TD50 in [1] was 82 mg/kg. Also, the figures for the “Ratio TD50/ED50” value in [2] and in data set [3] were 1.7 and 3.7, respectively.
Regarding `CCCCCCCC(=O)NC(N)=O`, the ED50 in [12] and in [13] was over 300 mg/kg each time. The compound also yielded a TD50 in [1] of over 300 mg/kg. Further, the figures for the “Ratio TD50/ED50” value in [2] and in data set [3] were 1.4 and 1.2, respectively. In [11], this compound displayed a solubility of under 50 µg/mL.
For the compound `CCCC(CCC)C(=O)O` [VALPROIC ACID], the concentration in solution in [11] (solubility) was 1300 µg/mL (≈ 9010 µM).
`CCC[C@H](C(=O)O)C(C)C`: the Activity in [20] was found to be 5.8%; in data set [21], 0%.
Regarding `CC(C)C(C(N)=O)C(C)C`, the ED50 is 51 mg/kg in [12], 60 mg/kg in data set [13], over 100 mg/kg in [14] and over 100 mg/kg in [15]. In data set [1], this compound had a TD50 of 72 mg/kg. For the same compound, the entries for the “Ratio TD50/ED50” value in data set [2] and in data set [3] were 1.4 and 1.2, respectively.
For the compound `CCCC(C(N)=O)C(C)C` (racemic), the results for the ED50 in data set [12] and in data set [13] were 50 mg/kg and 27 mg/kg, respectively. This compound also gave a TD50 in data set [1] of 87 mg/kg. The “Ratio TD50/ED50” value in [2] is given as 1.7; in data set [3], 3.2.
On to `CCCC(CCC)C(=O)NC(N)=O`, for which the 50% effective dose (ED50) was determined as 54 mg/kg in data set [12], 77 mg/kg in data set [13], 58 mg/kg in data set [14] and 105 mg/kg in data set [15]. For the same compound, the “Ratio TD50/ED50” value is 4.3 in data set [2], 3 in [3] and under 1.7 in [5]. Besides, the TD50 in [4] is over 50 mg/kg. The Activity was 41.2% in data set [22]; 12.9% in data set [23]; 13.7% in data set [24]; 0.9% in [25]; “Toxic” in data set [26]. Also, in [11], the concentration in solution (solubility) came to 120 µg/mL (≈ 644 µM).
Regarding `CCC[C@H](C(N)=O)C(C)C`, the ED50 in [12] came out at 63 mg/kg; in [13] it was 38 mg/kg. The TD50 in data set [1] was found to be 83 mg/kg. In addition, the “Ratio TD50/ED50” value in data set [2] amounted to 1.3; in [3] it was 2.2.
As for `CCCC(CCC)C(N)=O` [VALPROMIDE], the concentration in solution in [11] (solubility) came to 3700 µg/mL (≈ 25800 µM).
In data set [14], `CCCC(C(=O)O)C(C)C` (racemic) showed an ED50 of 149 mg/kg. The same compound returned a TD50 in data set [4] of over 300 mg/kg. For the same compound, in [5], the “Ratio TD50/ED50” value is listed as over 2. For the same compound, the Activity in [20] is 5.5%; in data set [21], 0%.
In the case of `CCC[C@@H](C(=O)O)C(C)C`, the Activity in data set [20] was determined as 4.3%; in data set [21], 0%.
As for `CC(C)C(C(=O)NC(N)=O)C(C)C`, the “Ratio TD50/ED50” value is reported as 1.7 in [2], 3.5 in [3], under 2.3 in data set [5] and under 2 in data set [6]. The ED50 in data set [14] stood at 43 mg/kg; in data set [15], 49 mg/kg. The compound also showed a TD50 in [4] of over 50 mg/kg. Further, the concentration in solution in data set [11] (solubility) came to 270 µg/mL (≈ 1450 µM).
`CCC[C@@H](C(=O)NC(N)=O)C(C)C`: the ED50 in data set [12] turned out to be 36 mg/kg; in data set [13] it was 22 mg/kg; in data set [14] it was 43 mg/kg; in data set [15] it was 56 mg/kg. Besides, the TD50 was 124 mg/kg in data set [1] and 118 mg/kg in data set [4]. The “Ratio TD50/ED50” value was 3.4 in data set [2], 5.6 in [3], 2.7 in data set [5] and 2.1 in data set [6]. Further, the Activity in [7] was determined as 7.1%; in data set [16], 65.7%; in [8], 0%; in [18], 17.5%; in data set [19] it was 15.4%. For the same compound, the mortality in data set [17] is 54.4%.
